Laboratory results reported in publication PMC5391125, “Fatty acid DSF binds and allosterically activates histidine kinase RpfC of phytopathogenic bacterium Xanthomonas campestris pv. campestris to regulate quorum-sensing and virulence” (PLoS Pathogens, 2017).

Key:
GST = GST (Schistosoma japonicum, UniProt P08515); assay: Circular dichroism of GST; conditions: GST 6 μM
RpfC^FL liposome [1] = target: T1, RpfC^FL liposome (Xanthomonas campestris pv. campestris, UniProt P0C0F7); assay: Limited proteolysis of RpfC^FL liposome; conditions: with AMP-PNP, vs DSF minus control
T1 construct: His6 (C); made in house; host or cells: E. coli BL21(DE3), pET30a
Procedure: The limited proteolysis experiments were performed at 0°C with 1.4 μg RpfC liposomes in a reaction buffer containing 50 mM Tris-HCl, pH 8.0, 100 mM NaCl, 2 mM DTT and 1.13 mM AMP-PNP. Trypsin was added to a final concentration of 0.018 μg μl^-1 to degrade RpfC liposome. Aliquot was removed at indicated time and the reaction was stopped by 5 × SDS loading buffer (250 mM Tris-HCl pH 6.8, 10% (w/v) SDS, 0.5% (w/v) bromophenol blue, 50% (v/v) glycerol, 25 mM PMSF). Samples were separated by 12% SDS-PAGE gel and protein bands were detected by silver staining. The sequence of the different peptide fragments were determined by a nanoLC-MS/MS with Orbitrap Fusion system (Thermo scientific, USA).

RpfC^R15A liposome = target: T2, RpfC^R15A liposome (Xanthomonas campestris pv. campestris, UniProt P0C0F7, R15A); assay: MST binding, RpfC^R15A liposome
T2 construct: His6 (C); made in house; host or cells: E. coli BL21(DE3), pET30a
Procedure: (§1) Binding reactions of RpfC to DSF was measured by microscale thermophoresis in a Monolith NT.Label Free (Nano Temper Technologies GMBH, Germany) instrument which detects changes in size, charge and conformation induced by binding. RpfC liposomes were collected with centrifugation of 200,000 g for 40 min and resuspended in MST buffer (50 mM Tris-HCl pH 7.8, 150 mM NaCl, 10 mM MgCl2, 0.05% Tween-20) to an approximate concentration of 0.1 μM. A range of concentration of DSF (range from 0.06 μM to 2 mM) in assay buffer (50 mM Tris-HCl pH 7.8, 150 mM NaCl, 10 mM MgCl2, 0.05% Tween-20, 5% methanol) was incubated with RpfC liposomes (1:1, v/v) for 10 minutes. The sample was loaded into the NT.Label Free standard capillaries and measured with 20% LED power and 40% MST power. Purified sensor protein was dissolved in reaction buffer (50 mM Tris-HCl pH 8.5, 150 mM NaCl, 0.1% Tween-20) to a final concentration as 8 μM. Dilute DSF from 0.0122 μM to 25 μM in buffer (50 mM Tris-HCl pH 8.5, 150 mM NaCl, 0.25‰ methanol). Different concentrations of DSF and sensor protein (1:1, v/v) were mixed and loaded into NT.Label Free standard capillaries. […]
(§2) Supplementary file ppat.1006304.s004.pdf: S4 Fig Substitution of essential amino acid impact DSF-RpfC interaction. Microscale thermophoresis (MST) was used to quantify the binding affinity between DSF and RpfC derivates. […]

cell-cell communication = system: cell-cell communication; design: method as in PMID 14731288; conditions: cited from earlier work
RpfC sensor peptide = target: T3, RpfC sensor peptide (Xanthomonas campestris pv. campestris, UniProt P0C0F7); assay: MST binding, purified RpfC sensor peptide; conditions: sensor peptide with GST tag removed, read-out: dissociation constant (Kd)
T3 construct: GST (N, cleaved yes); made in house; host or cells: E. coli BL21 (DE3), pGEX6P-1
Procedure: RpfC sensor fused with a GST tag was obtained and purified according to the GST Gene Fusion System Handbook (Amersham Biosciences) with GST Resin (TRANS). In order to acquire sensor peptide with GST tag cleaved off, on-column cleavage procedure was conducted. In brief, lysate of recombinant E.coli BL21 (DE3) strain was mixed with pre-equilibrated GST Resin with PBS buffer for ten minutes before loading into column. The column was washed by PBS buffer and resuspened with PreScission buffer (50 mM Tris-HCl, pH 8.5, 150 mM NaCl). Following the injection of 2 units PreScission Protease (GenScript), the column was sealed and placed on a rotator at 4°C. After 10 h of digestion, the flow fractions were collected, which contains preliminary sensor peptide with the GST tag being moved. If necessary, the sensor peptide was purified again by the GST Resin to get rid of uncleaved sensor-GST fusion protein. […]
Binding reactions of RpfC to DSF was measured by microscale thermophoresis in a Monolith NT.Label Free (Nano Temper Technologies GMBH, Germany) instrument which detects changes in size, charge and conformation induced by binding. […] The sample was loaded into the NT.Label Free standard capillaries and measured with 20% LED power and 40% MST power. […]

RpfC^D17A liposome = target: T4, RpfC^D17A liposome (Xanthomonas campestris pv. campestris, UniProt P0C0F7, D17A); assay: MST binding, RpfC^D17A liposome
T4 construct: His6 (C); made in house; host or cells: E. coli BL21(DE3), pET30a
Procedure: as §1, §2

RpfC^FL liposome [2] = target: T1, RpfC^FL liposome; assay: Microscale thermophoresis (MST) binding, RpfC^FL liposome; conditions: RpfC liposome 0.1 μM, read-out: dissociation constant (Kd)
Procedure: Binding reactions of RpfC to DSF was measured by microscale thermophoresis in a Monolith NT.Label Free (Nano Temper Technologies GMBH, Germany) instrument which detects changes in size, charge and conformation induced by binding. RpfC liposomes were collected with centrifugation of 200,000 g for 40 min and resuspended in MST buffer (50 mM Tris-HCl pH 7.8, 150 mM NaCl, 10 mM MgCl2, 0.05% Tween-20) to an approximate concentration of 0.1 μM. A range of concentration of DSF (range from 0.06 μM to 2 mM) in assay buffer (50 mM Tris-HCl pH 7.8, 150 mM NaCl, 10 mM MgCl2, 0.05% Tween-20, 5% methanol) was incubated with RpfC liposomes (1:1, v/v) for 10 minutes. The sample was loaded into the NT.Label Free standard capillaries and measured with 20% LED power and 40% MST power. Purified sensor protein was dissolved in reaction buffer (50 mM Tris-HCl pH 8.5, 150 mM NaCl, 0.1% Tween-20) to a final concentration as 8 μM. Dilute DSF from 0.0122 μM to 25 μM in buffer (50 mM Tris-HCl pH 8.5, 150 mM NaCl, 0.25‰ methanol). Different concentrations of DSF and sensor protein (1:1, v/v) were mixed and loaded into NT.Label Free standard capillaries. The label free MST assay was performed with 20% LED power and 40% MST power. KD Fit function of the Nano Temper Analysis Software Version 1.5.41 was used to fit curve and calculate the value of dissociation constant (Kd).

RpfC^FL IMV = target: T5, RpfC^FL IMV (Xanthomonas campestris pv. campestris, UniProt P0C0F7); assay: In vitro autokinase assay, RpfC^FL inverted membrane vesicles; assay type: biochemical; conditions: 10 μM DSF
T5 construct: His6 (C); made in house; host or cells: E. coli BL21(DE3), pET30a
Procedure: (§3) in vitro phosphorylation assay was conducted as described in our previous study. For autophosphoylation, RpfC liposomes or IMV were incubated with 100 μM ATP containing 10 μCi [γ-^32P]ATP (PerkinElmer, USA) in autophosphorylation buffer (50 mM Tris-HCl, pH 7.8, 2 mM DTT, 25 mM NaCl, 25 mM KCl, 5 mM MgCl2) for indicated time (28°C). If necessary, DSF was added into the mixture 20 min before addition of ATP. The reaction was stopped with 6 × SDS-PAGE loading buffer. The phosphorylated proteins were separated by 12% SDS-PAGE. After SDS-PAGE electrophoresis, gels were separated from back glass plate and placed in a Ziploc bag and exposed to a phosphor screen for 1 hour. The screen was scanned with a PhosphorImage system (Amersham Biosciences, USA) at […]. If necessary, signal intensity was measured by Quantity One software (Bio-Rad).

[3] = target: T6, soluble RpfC protein without input region (RpfC^Δinput) (Xanthomonas campestris pv. campestris, UniProt P0C0F7); assay: MST binding, soluble RpfC^Δinput; conditions: RpfC^Δinput 0.1 μM
T6 construct: a truncated, soluble RpfC protein (RpfC^Δinput) lacking the N-terminal input region (including sensor and TM domains) was obtained and purified; His6 (C); made in house; host or cells: E. coli BL21(DE3), pET30a

RpfC^E19A liposome = target: T7, RpfC^E19A liposome (Xanthomonas campestris pv. campestris, UniProt P0C0F7, E19A); assay: MST binding, RpfC^E19A liposome
T7 construct: His6 (C); made in house; host or cells: E. coli BL21(DE3), pET30a
Procedure: as §1, §2

RpfC^FL = target: T8, RpfC^FL (Xanthomonas campestris pv. campestris, UniProt P0C0F7); assay: Dose-response of DSF on RpfC autokinase activity; assay type: biochemical
T8 construct: His6 (C); made in house; host or cells: E. coli BL21(DE3), pET30a
Procedure: as §3

RpfC^S3A liposome = target: T9, RpfC^S3A liposome (Xanthomonas campestris pv. campestris, UniProt P0C0F7, S3A); assay: MST binding, RpfC^S3A liposome
T9 construct: His6 (C); made in house; host or cells: E. coli BL21(DE3), pET30a
Procedure: as §1, §2

## CC(C)CCCCCCC/C=C\C(=O)O [DSF, cis-11-methyl-dodecenoic acid]
GST
  impact on secondary structure: did not have recognizable impact
RpfC^FL liposome [1]
  DHp-CA fragment (30 kDa) after trypsin limited proteolysis: large accumulation
RpfC^R15A liposome
  binding between DSF and RpfC liposome: completely eliminated the binding
cell-cell communication
  minimal bioactive concentration of DSF required for eliciting cell-cell communication: approximately 0.5 μM
RpfC sensor peptide
  Kd: 0.14 ± 0.04 µM
RpfC^D17A liposome
  binding between DSF and RpfC liposome: completely eliminated the binding
RpfC^FL liposome [2]
  Kd: 0.82 ± 0.12 µM
RpfC^FL IMV
  level of RpfC^FL-P phosphorylation compared with the control: approximately doubled
  time of increase in phosphorylation level post DSF addition: 30 s
[3]
  binding to DSF: didn’t bind
RpfC^E19A liposome
  binding between DSF and RpfC liposome: completely eliminated the binding
RpfC^FL
  DSF concentration at which RpfC^FL-P levels tapered off (saturation): ~20 µM
  DSF concentration sufficient to elicit a detectable increase in RpfC^FL-P level: 0.5 µM
RpfC^S3A liposome; MST
  Kd: 0.613 ± 0.34 µM
RpfC^S3A liposome; S3A replacement
  increase of binding affinity compared with WT RpfC: approximately 20%
